Results: patent US11541041B1, “Compounds that interact with the Ras superfamily for the treatment of cancers, inflammatory diseases, Rasopathies, and fibrotic disease” (Shy Therapeutics LLC, priority 2017, dated 2023)
Where two headings read alike, the source gives them in different places. Blank lines part the entries; values can stand above or below the compound they belong to.

Key:
KRas G12D mutant protein = KRas G12D mutant protein (Homo sapiens (Human), UniProt P01116, G12D); test: Ras GTP binding domain inhibition assay
Protocol: The following method was developed as specific assay for KRas G12D mutant protein.
(§1) Buffer-I: • 50 mM Tris, pH 7.5 • 150 mM NaCl (optional) • 1 mM MgCl2 • 1 mM DTT. • KRas G12D mutant protein was expressed as a His-tagged protein. Purified His-KRas G12D protein was diluted in buffer-I to a final concentration of 3-10 μg/ml. • 200 μl of the diluted His-KRas G12D protein was added to a nickel coated 96 well plate and incubated overnight at 4° C. • The next day, wells were washed 3× in 200 μl of Buffer-I. • Then 200 μl of Buffer-I were added to each well in the presence of 1% DMSO. • Tested compounds were added to the protein-coated wells at a concentration of 20 μM, and incubated for 3 hours at room temperature. While performing IC50 measurements a serial dilution of all tested concentrations was prepared.
(§2) Then 22 μl of Cy3-GTP or Cy5-GTP was added to each well. The labeled GTP was incubated for 45 min. at room temperature. • Following GTP incubation, wells were washed 3× in Buffer-I, and 200 μl of Buffer-I were added to each well. • Following washes, the amount of bound labeled-GTP was measured with an Eppendorf AF2200 plate reader.

[1] = molecular target: KRas G12D/Q61H double mutant (Homo sapiens (Human), UniProt P01116, G12D/Q61H); test: Ras GTP binding domain inhibition assay
Protocol: as §1, §2
(§3) By substituting KRas G12D mutant protein with KRas G12C mutant, KRas wild type, KRas Q61H mutant, KRas G12D/Q61H double mutant or KRas G12C/Q61H double mutant under the assay conditions described above, KRas G12C mutant KRas wild type, KRas Q61H mutant, KRas G12D/Q61H double mutant and KRas G12C/Q61H double mutant inhibition, respectively, were each determined.

[2] = molecular target: KRas G12C/Q61H double mutant (Homo sapiens (Human), UniProt P01116, G12C/Q61H); test: Ras GTP binding domain inhibition assay; details: 20 μM compound
Protocol: as §1, §2, §3

KRas Q61H mutant = KRas Q61H mutant (Homo sapiens (Human), UniProt P01116, Q61H); test: Ras GTP binding domain inhibition assay; details: 20 μM compound
Protocol: as §1, §2, §3

KRas G12C mutant = KRas G12C mutant (Homo sapiens (Human), UniProt P01116, G12C); test: Ras GTP binding domain inhibition assay; details: 20 μM compound
Protocol: as §1, §2, §3

KRas wild type = KRas wild type (Homo sapiens (Human), UniProt P01116); test: Ras GTP binding domain inhibition assay; details: 20 μM compound
Protocol: as §1, §2, §3

[3] = test system: MAPK phosphorylation in PANC-1 pancreatic cancer cell line; test: MAPK cell-based phosphorylation assay (cell-direct ELISA, EGF-stimulated); details: Homo sapiens
Protocol: Cell lines: Tumor-derived pancreatic cancer cell lines PANC-1 were purchased from ATCC and were maintained according to ATCC recommendation.
Method: Cells were plated at 7500 cells/well density in 96-wells plate, starved over night, and the small molecules to be tested were added to the cells in the final concentration of 30 μM with 0.3% DMSO for 6 hours incubation at 37° C. For IC50 value determination, serial dilutions of compounds were added to cells under the same conditions. Next, cells were stimulated with 1.5 ng/ml EGF for 15 min. followed by cell fixation with 4% Formaldehyde in PBS at RT for 20 min. Phosphorylation level of MAPK was determined by Cell-direct ELISA.
Cell-direct ELISA: For each well, cells were permeabilized with PBS-Triton 0.1%, quenched with H2O2 0.6% in PBS-Triton 0.1%, and probed with anti-phospho-MAPK antibodies (R&D Systems) followed by HRP-conjugated secondary antibody (Jackson Immunoresearch, West Grove, Pa.). Next, a solution 50 μM of the fluorescent substrate AmpliFlu Red (Sigma) was added and incubated at RT for 20 min. At the end of the incubation time, fluorescence was measured at 595 nm on a microplate reader (AF2200; Eppendorf, Inc., Hamburg, Germany).

[4] = test system: MIA-PACA2 pancreatic cancer cell lines; test: Cell proliferation assay, alternate assay conditions (DAPI staining); type: cell-based; details: Homo sapiens, MIA PaCa-2; for inhibition at 10 µM: * = tested at 10 μM, alternate conditions, MIA-PACA2
Protocol: (§4) Cell lines: Tumor-derived pancreatic cancer cell lines MIA-PACA2 were purchased from ATCC and grown in complete DMEM-High Glucose medium supplemented with penicillin (100 U/mL), streptomycin (100 μg/mL), and 10% heat-inactivated FBS at 37° C. in a humidified incubator with 5% CO2.
Method: Cells are plated at 4000 cells/well density in 96-wells plate. The next day tested small molecules are added to the cells in the final concentration of 10 μM in the presence of 0.3% DMSO and 10% FBS. After small molecules addition, cells are incubated for 4 days at 37° C. in a humidified incubator with 5% CO2. For IC50 value determination, serial dilutions of compounds were added to cells under the same conditions.
Assay: At the end of the incubation period, cell cultures are fixed with a 50-50 mixture (v/v) acetone-methanol for 10 minutes at −20° C., followed by rehydration in PBS for 10 minutes at room temperature. After rehydration, cells are stained with DAPI (1 μg/ml) in PBS for 10 minutes at room temperature, followed by 3 washes with PBS. After staining, DAPI fluorescence is recorded (358 nm excitation/461 nm emission) with the 96-well plate reader Molecular Devices Spectramax M3; degree of small mole-cule-dependent proliferation inhibition is calculated from raw data assuming No Serum cells value as 100%.

[5] = test system: MIA-PACA2 pancreatic cancer cell lines; test: Cell proliferation assay (CellTiter 96 AQueous One); type: cell-based; details: Homo sapiens, MIA PaCa-2; 30 μM, MIA-PACA2
Protocol: as §4
Method: Cells are plated at 1000 cells/well density in 96-wells plate, starved ON, and the next day tested small molecules are added to the cells in the final concentration of 30 μM with 0.3% DMSO 3 hours prior to 10% FBS addition. After serum addition cells are incubated for 6 days at 37° C. in a humidified incubator with 5% CO2. For IC50 value determination, serial dilutions of compounds were added to cells under the same conditions.
Assay: At the end of the incubation period, cell cultures are tested using the CellTiter 96® AQueous One Solution Cell Proliferation Assay kit (Promega Corporation, Madison, Wis.) according to the manufacturer specifications. Briefly, assay is performed by adding 20 μl of the CellTiter 96 Aqueous One Solution Reagent directly to culture wells, followed by for 1-4 hours incubation at 37° C. in a humidified incubator with 5% CO2. At the end of incubation time, absorbance at 492 nm is recorded with the 96-well plate reader Eppendorf AF2200, and degree of small molecule-dependent proliferation inhibition is calculated from raw data assuming No Serum cells value as 100%.

Rho-A = Rho-A (Homo sapiens (Human), UniProt P61586); test: Rac and Rho inhibition assay; type: binding; details: read-out: Rho-A % Inh.
Protocol: as §1, §2
(§5) By substituting KRas G12D mutant protein with either Rac-1 or Rho-A under the assay conditions described in Example 5, Rac-1 and Rho-A inhibition, respectively, were each determined.

Rac-1 = Rac-1 (Homo sapiens (Human), UniProt P63000); test: Rac and Rho inhibition assay; type: binding; details: read-out: Rac-1 % Inh.
Protocol: as §1, §2, §5

KRas G12C mutant, sequence (P01116-2 other isoform, or with tags, fused parts or gaps G12C): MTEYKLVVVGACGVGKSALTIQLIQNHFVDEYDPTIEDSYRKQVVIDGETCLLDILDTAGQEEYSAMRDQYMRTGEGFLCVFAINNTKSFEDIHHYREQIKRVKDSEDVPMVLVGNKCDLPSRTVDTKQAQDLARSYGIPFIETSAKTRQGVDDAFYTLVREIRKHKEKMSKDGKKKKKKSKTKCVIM
KRas wild type, sequence (P01116-2 other isoform, or with tags, fused parts or gaps): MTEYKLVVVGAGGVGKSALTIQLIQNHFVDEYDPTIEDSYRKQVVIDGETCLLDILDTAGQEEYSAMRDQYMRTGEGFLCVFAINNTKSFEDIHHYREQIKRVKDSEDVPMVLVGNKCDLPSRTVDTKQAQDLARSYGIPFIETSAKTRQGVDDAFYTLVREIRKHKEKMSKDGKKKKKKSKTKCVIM
KRas G12D mutant protein, sequence (P01116-2 other isoform, or with tags, fused parts or gaps G12D): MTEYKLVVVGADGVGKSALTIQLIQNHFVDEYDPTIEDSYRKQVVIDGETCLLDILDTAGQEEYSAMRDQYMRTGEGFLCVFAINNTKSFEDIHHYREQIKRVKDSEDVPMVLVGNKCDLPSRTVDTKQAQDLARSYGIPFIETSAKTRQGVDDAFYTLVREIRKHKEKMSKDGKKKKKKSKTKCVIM
KRas Q61H mutant, sequence (P01116-2 other isoform, or with tags, fused parts or gaps Q61H): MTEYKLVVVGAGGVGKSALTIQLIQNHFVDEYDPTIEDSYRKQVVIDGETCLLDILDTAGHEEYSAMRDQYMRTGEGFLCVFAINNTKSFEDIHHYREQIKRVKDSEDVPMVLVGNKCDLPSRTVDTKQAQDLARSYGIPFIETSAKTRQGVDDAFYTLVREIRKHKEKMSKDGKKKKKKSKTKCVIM
KRas G12D/Q61H double mutant, sequence (P01116-2 other isoform, or with tags, fused parts or gaps G12D/Q61H): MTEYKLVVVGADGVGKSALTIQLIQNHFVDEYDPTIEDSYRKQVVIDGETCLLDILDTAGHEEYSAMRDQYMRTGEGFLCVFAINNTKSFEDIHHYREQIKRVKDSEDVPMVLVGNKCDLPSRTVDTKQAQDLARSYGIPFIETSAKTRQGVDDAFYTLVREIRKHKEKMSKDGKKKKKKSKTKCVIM
KRas G12C/Q61H double mutant, sequence (P01116-2 other isoform, or with tags, fused parts or gaps G12C/Q61H): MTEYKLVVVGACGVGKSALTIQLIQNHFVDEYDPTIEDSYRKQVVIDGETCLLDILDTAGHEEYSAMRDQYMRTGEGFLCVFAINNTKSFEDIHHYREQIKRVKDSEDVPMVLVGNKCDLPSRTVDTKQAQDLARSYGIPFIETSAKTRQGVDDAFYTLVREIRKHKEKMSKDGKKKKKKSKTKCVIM
Rho-A, sequence (P61586 whole entry): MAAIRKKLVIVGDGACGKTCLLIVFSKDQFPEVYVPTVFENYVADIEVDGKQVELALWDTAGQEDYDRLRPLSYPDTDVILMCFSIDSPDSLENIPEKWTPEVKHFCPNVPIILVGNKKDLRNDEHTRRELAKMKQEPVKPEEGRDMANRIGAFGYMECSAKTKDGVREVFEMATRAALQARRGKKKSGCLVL

inhibition at 20 µM (KRas G12D mutant protein; 20 μM compound, read-out: % Inhibition at 20 μM, KRas G12D): 51 to 75%
inhibition at 20 µM ([1]; 20 μM compound, read-out: % Inhibition at 20 μM, KRas G12D Q61H): 25 to 50%
inhibition at 20 µM [2]: 1 to 25%
inhibition at 20 µM (KRas Q61H mutant): 25 to 50%
inhibition at 20 µM (KRas G12C mutant): 25 to 50%
inhibition at 20 µM (KRas wild type): 25 to 50%
Structure (SMILES): Nc1nc(-c2ccccn2)nc2c(C3CC3)csc12

Structure (SMILES): Oc1nc(-c2ccccn2)nc2c(-c3ccccc3)csc12
inhibition at 10 µM ([3]; * = tested at 10 μM): 25 to 50%

Structure (SMILES): O=c1[nH]c(-c2ccccn2)nc2c(C3O[C@H](CO)[C@@H](O)[C@H]3O)csc12 (stereo partly drawn)
inhibition at 10 µM [4]: 76 to 100%

Structure (SMILES): COCCNc1nc(-c2nccn2C)nc2sc(-c3ccccc3)c(-c3ccccc3)c12 [drawing 3594]
% Inhibition at 20 μM, KRas G12D (KRas G12D mutant protein; 20 μM compound): B (B = 25-50% inhibition)
% Inhibition at 20 μM, KRas G12C (KRas G12C mutant): A (A = 1-25% inhibition)
% Inhibition at 20 μM, KRas wild type (KRas wild type): B (B = 25-50% inhibition)

% Inhibition at 20 μM, KRas Q61H (KRas Q61H mutant): D (D = 76-100% inhibition)
Structure (SMILES): COC(=O)c1c(C)sc2c(O)nc(-c3ccccn3)nc12

Structure (SMILES): COCC(C)Nc1nc(-c2ccccn2)nc2sc(-c3ccncc3)c(-c3ccccc3)c12 (stereo not drawn)
inhibition at 10 µM [4]: 51 to 75%

Structure (SMILES): Nc1nc(-c2ccccn2)nc2c(C(=O)N3CC4CC3CN4c3ccccc3)csc12 (stereo not drawn)
inhibition at 30 µM [5]: 76 to 100%

Structure (SMILES): COc1nc(-c2ccccn2)nc2c(-c3cc(CN4CCCC4)ccc3F)csc12
inhibition at 10 µM [4]: 76 to 100%

Structure (SMILES): COCCOCCN(CCO)C(=O)c1csc2c(O)nc(-c3ccccn3)nc12
inhibition at 30 µM [5]: 1 to 25%

Structure (SMILES): COCCNc1nc(-c2nccn2C)nc2sc(-c3ccccc3)c(-c3ccccc3)c12 [drawing 3568]
inhibition at 20 µM [2]: 51 to 75%
inhibition at 20 µM (KRas Q61H mutant): 51 to 75%
% Inhibition at 20 μM, KRas G12C (KRas G12C mutant): C (C = 51-75% inhibition)
% Inhibition at 20 μM, KRas wild type (KRas wild type): A (A = 1-25% inhibition)

inhibition at 20 µM (Rho-A): 76 to 100%
inhibition at 20 µM (Rac-1): 51 to 75%
inhibition at 20 µM (KRas G12D mutant protein; at 20 μM, read-out: KRas G12D % Inh.): 51 to 75%
inhibition at 20 µM ([1]; at 20 μM, read-out: KRas G12D Q61H % Inh.): 51 to 75%
Structure (SMILES): Nc1nc(-c2ccccn2)nc2c(CC3CCNCC3)csc12

IC50 ([4]; MIA-PACA2 proliferation, same assay as % inhibition (alternate conditions)): 501 to 1000 nM
Structure (SMILES): Cn1ccnc1-c1nc(NCCOS)c2c(-c3ccccn3)c(-c3ccccc3)sc2n1
inhibition at 10 µM [4]: 76 to 100%

Structure (SMILES): O=C(Nc1nnc(-c2ccccc2)[nH]1)C1CCCC1
inhibition at 30 µM [3]: 1 to 25%

Structure (SMILES): COc1nc(-c2ccccn2)nc2c(-c3cn(C)nc3C(C)C)csc12
inhibition at 10 µM [4]: 76 to 100%

Structure (SMILES): O=C(CCc1c[nH]c2ccccc12)Nc1nnc(-c2cccnc2)[nH]1
inhibition at 30 µM [3]: 25 to 50%

Structure (SMILES): COc1ccc(CCNC(=O)c2csc3nc(-c4ccccn4)nc(N4CCSCC4)c23)cn1 [drawing 1763]
inhibition at 30 µM [5]: 51 to 75%
